Consider 23 molecules from patent publication US11077100B2, “Tetrahydroquinoline derivatives as P2X7 receptor antagonists” (RaQualia Pharma Inc., priority 2017, dated 2021).

Assay [1] addresses rat P2X7 (Rattus norvegicus (Rat), UniProt Q64663). The experiment in a line: Rat P2X7 functional assay (Ca2+ influx, Fluo-4, FDSS). It counts as cell-based. The settings on record: HEK293 cells stably expressing rat P2X7; BzATP final 10 microM; 7-point dose-response; read-out: Antagonistic activities with respect to the rat P2X7 receptor (IC50). On the procedure: Rat P2X7 Functional Assay
The functional activity of compounds was determined by measuring changes in intracellular calcium concentration using a Ca^2+-sensitive fluorescent dye, Fluo-4 (Molecular Probes). The changes in fluorescent signal were monitored by the cell imaging technology by Hamamatsu Photonics's Functional Drug Screening System (FDSS). Increases in intracellular Ca^2+ concentration were readily detected upon activation with BzATP.
HEK293 cells stably expressing rat P2X7 (GenBank accession number NM_019256) were grown in Corning CellBIND cell culture flasks, in a 5% CO2 humidified incubator to about 80% confluence. Media composition consisted of Dulbecco's Modified Eagle Medium (high glucose), 10% fetal bovine serum ([…]), 100 units/[…] Penicillin, 100 microg/mL Streptomycin and 250 microg/mL Geneticine.
1. […] Plate-out HEK293-rat P2X7 cells (40 microL medium containing 5,000 cells per well) into poly-D-lysine coated 384-well plates (BD Falcon) at 24 h prior to assay.
2. Incubate at 37° C. in 5% CO2.
3. Incubate the plate at 37° C. in 5% CO2 for 1 h.
5. Test compounds were prepared at 100× the test concentration in DMSO by serial dilution with Biomek-FX liquid handling instrument. 33× diluted compound solutions in assay buffer were prepared in intermediate compound plate with Biomek-NX liquid handling instrument. A further 3× dilution occurred in below steps 6 and 7.
6. Add 20 microL of 33× diluted compound solutions into each well and leave the plate for 10 min under the dark at room temperature.
7. Measure activity by FDSS as follows: • Set the assay plate on the stacker of FDSS. • Start the detection of fluorescence intensity at 540 nm by 480 nm exicitation. • After 30 seconds, add 20 microL of assay buffer containing 30 microM BzATP (final 10 microM).
IC50 values for compounds of the present invention were determined from 7-point dose-response studies. Curves were generated using the average of duplicate wells for each data point. Finally, the IC50 values are calculated with the best-fit dose curve determined by XLfit (ID Business Solutions Ltd.).

For assay [2], the target named is human P2X7 (Homo sapiens (Human), UniProt Q99572). Kind of assay: Human P2X7 functional assay (Ca2+ influx, Fluo-4, FDSS). It counts as cell-based. The settings on record: antagonistic activity with respect to the human P2X7 receptor; BzATP final concentration 80 microM. An outline of the steps:
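HEK293 cells stably expressing C-terminally FLAG-tagged human P2X7, loaded with Fluo-4. Compounds were preincubated for 10 min at room temperature, then 80 μM BzATP (final) was added and Ca2+ fluorescence read at 540 nm (480 nm excitation) by FDSS. IC50 values come from 7-point curves, duplicate wells.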

Sequence of human P2X7 (Q99572 whole entry): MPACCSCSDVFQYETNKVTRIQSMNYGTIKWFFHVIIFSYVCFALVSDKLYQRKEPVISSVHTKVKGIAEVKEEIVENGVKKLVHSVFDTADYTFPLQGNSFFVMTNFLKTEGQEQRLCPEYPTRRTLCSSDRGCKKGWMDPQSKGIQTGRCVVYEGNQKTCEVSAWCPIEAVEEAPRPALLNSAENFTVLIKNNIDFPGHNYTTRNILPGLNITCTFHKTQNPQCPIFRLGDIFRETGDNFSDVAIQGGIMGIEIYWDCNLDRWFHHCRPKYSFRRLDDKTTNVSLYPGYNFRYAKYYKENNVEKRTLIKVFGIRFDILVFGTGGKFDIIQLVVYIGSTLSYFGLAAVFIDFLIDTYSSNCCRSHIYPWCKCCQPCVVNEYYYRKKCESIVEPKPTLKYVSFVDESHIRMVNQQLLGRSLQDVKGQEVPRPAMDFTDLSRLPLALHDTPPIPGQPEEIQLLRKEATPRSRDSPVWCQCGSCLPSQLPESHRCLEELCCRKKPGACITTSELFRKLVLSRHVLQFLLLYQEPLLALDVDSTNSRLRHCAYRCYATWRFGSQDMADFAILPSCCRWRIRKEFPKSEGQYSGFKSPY
Sequence of rat P2X7 (Q64663 whole entry): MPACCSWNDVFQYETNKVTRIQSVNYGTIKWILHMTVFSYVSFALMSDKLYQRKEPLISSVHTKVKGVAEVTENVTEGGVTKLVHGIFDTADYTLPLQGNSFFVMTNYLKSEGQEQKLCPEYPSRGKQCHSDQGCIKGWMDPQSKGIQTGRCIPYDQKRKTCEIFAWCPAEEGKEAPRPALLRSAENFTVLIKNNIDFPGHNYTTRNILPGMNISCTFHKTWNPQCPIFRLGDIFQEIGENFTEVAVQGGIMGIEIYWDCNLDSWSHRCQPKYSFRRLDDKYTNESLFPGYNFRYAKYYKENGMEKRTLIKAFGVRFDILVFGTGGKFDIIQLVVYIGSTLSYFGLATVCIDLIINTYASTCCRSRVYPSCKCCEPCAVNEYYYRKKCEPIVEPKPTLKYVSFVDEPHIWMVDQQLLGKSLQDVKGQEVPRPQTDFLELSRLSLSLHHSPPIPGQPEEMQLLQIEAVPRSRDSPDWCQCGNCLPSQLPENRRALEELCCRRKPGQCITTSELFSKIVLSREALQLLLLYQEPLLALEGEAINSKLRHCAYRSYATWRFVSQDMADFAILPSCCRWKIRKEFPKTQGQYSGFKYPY

For `O=C(NCc1cccc(C(F)(F)F)c1Cl)C1(F)CCC(O)c2ncccc21` (stereo not shown) [Example 19, N-(2-chloro-3-(trifluoro-methyl)benzyl)-5-fluoro-8-hydroxy-5,6,7,8-tetrahydro-quinoline-5-carboxamide], the results for the IC50 in assay [1] and in assay [2] were less than 1000 nM and less than 50 nM, respectively.
`O=C(NCc1c(Cl)cc(Cl)cc1CO)C1(F)CCC(O)c2ncccc21` (stereo not shown) [Example 20, N-(2,4-dichloro-6-(hydroxymethyl)benzyl)-5-fluoro-8-hydroxy-5,6,7,8-tetrahydro quinoline-5-carboxamide]: the IC50 in assay [1] is less than 1000 nM; in assay [2] it was less than 50 nM.
Turning to `O=C(NCc1cccc(Cl)c1Cl)C1(F)CCC(O)c2ncccc21` (stereo not shown) [Example 21, N-(2,3-dichlorobenzyl)-5-fluoro-8-hydroxy-5,6,7,8-tetrahydroquinoline-5-carboxamide], the results for the IC50 in assay [1] and in assay [2] were less than 1000 nM and less than 50 nM, respectively.
For `O=C(NCc1ccc(Cl)cc1Cl)C1(F)CCC(O)c2ncccc21` (stereo not shown) [Example 22, N-(2,4-dichlorobenzyl)-5-fluoro-8-hydroxy-5,6,7,8-tetrahydroquinoline-5-carboxamide], the values for the IC50 in assay [1] and in assay [2] were less than 1000 nM and less than 50 nM, respectively.
On to `COCc1cc(Cl)cc(Cl)c1CNC(=O)C1(F)CCC(O)c2ncccc21` (stereo not shown) [Example 23, N-(2,4-dichloro-6-(methoxy-methyl)benzyl)-5-fluoro-8 hydroxy-5,6,7,8-tetrahydro-quinoline-5-carboxamide], for which the 50% inhibitory concentration (IC50) in assay [1] is less than 1000 nM; in assay [2] it was less than 50 nM.
The like results for `Cc1cc(Cl)cc(Cl)c1CNC(=O)C1(O)CCC(O)c2ncccc21` (stereo not shown) [Example 24, N-(2,4-dichloro-6-methyl-benzyl)-5,8-dihydroxy-5,6,7,8-tetrahydroquinoline-5-carboxamide] were, in that order, less than 1000 nM and less than 50 nM.
On to `O=C(NCc1cccc(C(F)(F)F)c1Cl)C1(O)CCC(O)c2ncccc21` (stereo not shown) [Example 25, N-(2-chloro-3-(trifluoro-methyl)benzyl)-5,8-dihydroxy-5,6,7,8-tetrahydroquinoline-5-carboxamide], for which the half-inhibitory concentration (IC50) in assay [1] is less than 1000 nM; in assay [2], 101 to 300 nM.
Take `Cc1cc(Cl)cc(Cl)c1CNC(=O)C1CC(O)c2ncccc21` (stereo not shown) [Example 26, N-(2,4-dichloro-6-methyl-benzyl)-7-hydroxy-6,7-dihydro-5H-cyclopenta[b] pyridine-5-carboxamide]: the values for the IC50 in assay [1] and in assay [2] were less than 1000 nM and less than 50 nM, respectively.
Turning to `O=C(NCc1cccc(C(F)(F)F)c1Cl)C1CC(O)c2ncccc21` (stereo not shown) [Example 27, N-(2-chloro-3-(trifluoro-methyl)benzyl)-7-hydroxy-6,7-dihydro-5H-cyclopenta[b] pyridine-5-carboxamide], the values for the IC50 in assay [1] and in assay [2] were less than 1000 nM and less than 50 nM, respectively.
In the case of `O=C(NCc1cccc(Cl)c1Cl)C1CC(O)c2ncccc21` (stereo not shown) [Example 28, N-(2,3-dichlorobenzyl)-7-hydroxy-6,7-dihydro-5H-cyclo-penta[b]pyridine-5-carboxamide], the IC50 is less than 1000 nM in assay [1] and 50 to 100 nM in assay [2].
Consider `O=C(NCc1ccc(Cl)cc1Cl)C1(F)CC(O)c2ncccc21` (stereo not shown) [Example 29, N-(2,4-dichlorobenzyl)-5-fluoro-7-hydroxy-6,7-dihydro-5H-cyclopenta[b]pyridine-5-carboxamide], for which the IC50 in assay [1] was less than 1000 nM; in assay [2], less than 50 nM.
The like results for `Cc1cc(Cl)cc(Cl)c1CNC(=O)C1CCC(O)(CO)c2ncccc21` (stereo not shown) [Example 33, N-(2,4-dichloro-6-methylbenzyl)-8-hy-droxy-8-(hydroxymethyl)-5,6,7,8-tetra-hydroxuqinoline-5-carboxamide] were, in that order, less than 1000 nM and less than 50 nM.
Regarding `Cc1cc(Cl)cc(Cl)c1CNC(=O)C1(F)CCC(O)(CO)c2ncccc21` (stereo not shown) [Example 34, N-(2,4-dichloro-6-methylbenzyl)-5-fluoro-8-hydroxy-8-(hydroxymethyl)-5,6,7,8-tetrahydroquinoline-5-carboxamide], the half-inhibitory concentration (IC50) is less than 1000 nM in assay [1] and less than 50 nM in assay [2].
The like results for `O=C(NCc1cccc(C(F)(F)F)c1Cl)C1(F)CCC(O)(CO)c2ncccc21` (stereo not shown) [Example 35, N-(2-chloro-3-(trifluoromethyl)benzyl)-5-fluoro-8-hydroxy-8-(hydroxymethyl)-5,6,7,8-tetrahydroquinoline-5-carboxamide] were, in that order, less than 1000 nM and less than 50 nM.
Turning to `O=C(NCc1cccc(Cl)c1Cl)C1(F)CCC(O)(CO)c2ncccc21` (stereo not shown) [Example 36, N-(2,3-dichlorobenzyl)-5-fluoro-8-hy-droxy-8-(hydroxymethyl)-5,6,7,8-tetra-hydroquinoline-5-carboxamide], the IC50 in assay [1] was less than 1000 nM; in assay [2] it was less than 50 nM.
As for `O=C(NCc1ccc(Cl)cc1Cl)C1(F)CCC(O)(CO)c2ncccc21` (stereo not shown) [Example 37, N-(2,4-dichlorobenzyl)-5-fluoro-8-hy-droxy-8-(hydroxymethyl)-5,6,7,8-tetra-hydroquinoline-5-carboxamide], the 50% inhibitory concentration (IC50) was less than 1000 nM in assay [1] and less than 50 nM in assay [2].
`O=C(NCc1ccc(Cl)cc1Cl)C1(F)CC(O)(CO)c2ncccc21` (stereo not shown) [Example 38, N-(2,4-dichlorobenzyl)-5-fluoro-7-hydroxy-7-(hydroxymethyl)-6,7-dihydro-5H-cyclopenta[b]pyridine-5-carboxamide]: the half-inhibitory concentration (IC50) was less than 1000 nM in assay [1] and 101 to 300 nM in assay [2].
Regarding `COCC1(O)CCC(F)(C(=O)NCc2c(C)cc(Cl)cc2Cl)c2cccnc21` (stereo not shown) [Example 39, N-(2,4-dichloro-6-methylbenzyl)-5-fluoro-8-hydroxy-8-(methoxymethyl)-5,6,7,8-tetrahydro-quinoline-5-carboxamide], the concentration for half-maximal inhibition (IC50) in assay [1] is less than 1000 nM; in assay [2], less than 50 nM.
`COCC1(O)CCC(F)(C(=O)NCc2cccc(C(F)(F)F)c2Cl)c2cccnc21` (stereo not shown) [Example 40, N-(2-chloro-3-(tri-fluoromethyl)benzyl)-5-fluoro-8-hydroxy-8-(methoxy-methyl)-5,6,7,8-tetra-hydroquinoline-5-carboxamide]: the half-maximal inhibitory concentration (IC50) in assay [1] was less than 1000 nM; in assay [2], less than 50 nM.
Consider `Cc1cc(Cl)cc(Cl)c1CNC(=O)C1CCC(O)(CN)c2ncccc21` (stereo not shown) [Example 43, 8-(aminomethyl)-N-(2,4-dichloro-6-meth-ylbenzyl)-8-hydroxy-5,6,7,8-tetrahydroquinoline-5-carboxamide], for which the IC50 is less than 1000 nM in assay [1] and less than 50 nM in assay [2].
With `CNCC1(O)CCC(C(=O)NCc2c(C)cc(Cl)cc2Cl)c2cccnc21` (stereo not shown) [Example 44, N-(2,4-dichloro-6-methylbenzyl)-8-hydroxy-8-((methyl-amino)methyl)-5,6,7,8-tetrahydro-quinoline-5-carboxamide], the IC50 was less than 1000 nM in assay [1] and less than 50 nM in assay [2].
The like results for `Cc1cc(Cl)cc(Cl)c1CNC(=O)C1(F)CCC(O)(CN)c2ncccc21` (stereo not shown) [Example 45, 8-(aminomethyl)-N-(2,4-dichloro-6-methylbenzyl)-5-fluoro-8-hydroxy-5,6,7,8-tetrahydro-quinoline-5-carboxamide] were, in that order, less than 1000 nM and less than 50 nM.
As to `CNCC1(O)CCC(F)(C(=O)NCc2c(C)cc(Cl)cc2Cl)c2cccnc21` (stereo not shown) [Example 46, N-(2,4-dichloro-6-methylbenzyl)-5-fluoro-8-hydroxy-8-((methyl-amino)methyl)-5,6,7,8-tetra-hydroquinoline-5-carboxamide], the IC50 in assay [1] was less than 1000 nM; in assay [2], less than 50 nM.
